Entries after “also recorded” stand apart in the source; their conditions may differ.
Experiments:
A549 cells [1] = experiment: Acridine orange/ethidium bromide (AO/EB) staining; format: cell-based, human; conditions: 0.5, 1, 2.5 and 5 µM, 72 h
Description: A549 cells were seeded at a concentration of 1.2x10^5 cells/ml and treated with various concentrations of compound 4q and the plates were incubated for 72 h. Then, 100 µl from fluorescent dyes comprising both Acridine Orange (Helfrich et al., 2016) and Ethidium Bromide (Vundru et al., 2013) were added into each well in equal volumes (10 µg/ml) respectively (Nekkanti et al., 2017), then the cells were Immediately visualized under fluorescence microscope with excitation (488 nm) and emission (550 nm) at 200X magnification.

A549 cells [2] = experiment: Cell cycle analysis (propidium iodide, flow cytometry); format: cell-based, human
Description: In order to reveal whether arrest of cell cycle was mechanistically responsible for sensitizing lung cancer cells towards apoptosis, the flow cytometric analysis was performed to analyse the distribution of the cell population in various cell cycle phases (Mani et al., 2017). Here, A549 cancer cells were incubated with compound 4q at various concentrations ranging from 0.5 to 5 µM for 48 h. Untreated and treated cells were harvested, washed and fixed overnight in 70% ethanol in PBS at -20 °C. Fixed cells were pelleted and stained with cell cycle analysis reagent propidium iodide (50 μg/ml) with RNase A for 20 min at 37 °C in dark and about 10,000 events were acquired and analyzed on a flow cytometer (Kumar et al., 2018a).

A549 cells [3] = experiment: DAPI nuclear staining; format: cell-based, human; conditions: 0.5, 1, 2.5 and 5 µM, 72 h
Description: After treatment with compound 4q for 72 h, lung cancer cell line A549 were washed with PBS then fixed with 4% formaldehyde for 10 min and then permeabilized with 0.1% Tween 20 followed by staining with 1 µM DAPI. Control and treated cells were observed under fluorescence microscope with excitation at 359 nm and emission at 461 nm using DAPI filter at 200X magnification (Sgorbati et al., 1986).

A549 cells [4] = experiment: Morphological observation, phase contrast microscope; format: cell-based, human; conditions: 0.5, 1, 2.5 and 5 µM, 72 h
Description: A549 cells were plated in 12 well culture plates with a cell density of 1.2x10^5 cells/ml and allowed to adhere for 24 h. Then the cells were incubated with 0.5, 1, 2.5 and 5 µM concentrations of compound 4q. After 72 h treatment, cells were monitored for the morphological changes and the images were captured under a phase contrast microscope (Nikon, Inc. Japan) at 200X magnification.

A549 cells [5] = experiment: Mitochondrial membrane potential (JC-1, flow cytometry); format: cell-based, human; conditions: 0.5-5 µM, 72 h
Description: The cyanine dye JC-1 (5,5′,6,6′-tetrachloro-1,1′,3,3′-tetraethylbenzimidazolylcarbocyanine iodide) is a cell-penetrating dye that facilitates discrimination of energized and de energized mitochondria thus, high mitochondrial potential shifts its emission fluorescence from green to red (Vundru et al., 2013).This phenomenon was assessed by flow cytometry (FACS). A549 cells (1.5x10^6 cells/ml) were seeded in 12 well plates and allowed to adhere for overnight. Then the cells were incubated with compound 4q at 0.5, 1, 2.5 and 5 µM concentrations for 72 h. Cells were collected and washed with PBS and resuspended in solution of JC- 1 (1 µM) and incubated for 30 min in incubator at 37 °C. The cells were washed twice with PBS and cells were trypsinized, centrifuged and 10,000 events were analyzed by flow cytometer (BD FACSVerse™, USA).

- melting point: 185 to 186 °C
SMILES: C1=CC2=NC3=C(CCCC3)C(c3cn(Cc4ccccc4)c4ccccc34)N2C=C1 (stereo not shown) [Compound 4i, 11-(1-benzyl-1H-indol-3-yl)-2,3,4, 11-tetrahydro-1H-pyrido [2,1-b] quinazoline]
- apoptotic morphology by AO/EB staining (A549 cells [1]): induced apoptosis in A549 lung cancer cells
- percentage of cells in G0/G1 (A549 cells [2]; 5 µM, control 63.53%): 80.02%
- cell cycle phase arrest (A549 cells [2]; 0.5 to 5 µM): arrests the A549 cancer cell lines at the G0/G1 phase; also recorded: G0/G1 arrest of the cell cycle
- nuclear changes by DAPI staining (A549 cells [3]): chromatin condensation, nuclear fragmentation, and horse shoe shaped nucleus
- morphological changes (phase contrast) (A549 cells [4]): shrinkage of cells and resulted in increased number of dead cells with increase in concentration
- mitochondrial membrane potential (ΔΨm) (A549 cells [5]): significant collapse in the ΔΨm

Source: publication PMC7332124, “Design, One Pot Synthesis and Molecular Docking Studies of Substituted-1H-Pyrido[2,1-b] Quinazolines as Apoptosis-Inducing Anticancer Agents” (Asian Pacific Journal of Cancer Prevention : APJCP, 2020)
